PMC12766724, “Synthesis, Anthelmintic Activity, and Mechanism of Action of 5‑Aryl‑1H‑indoles” (Journal of Agricultural and Food Chemistry, 2025)
Like-named read-outs stand apart in the source and are kept apart here.

Tests used:
[1] = tested on: Skin fibroblasts (BJ); test: Resazurin assay, 3-day treatment; format: cell-based, human; conditions: BJ
Experimental: Skin fibroblasts (BJ) were obtained from the American Type Culture Collection (ATCC, Manassas, VA), while human keratinocytes (HaCaT) were sourced from the German Cancer Research Center in Heidelberg, Germany. Cells were cultured in a standard DMEM medium from Sigma-Aldrich, supplemented with 10% fetal bovine serum, 2 mM glutamine, 100 U/mL penicillin, and 100 μg/mL streptomycin. Cultures were maintained under standard conditions (37 °C, 5% CO2, humidified atmosphere) and subcultured two to three times per week. We assessed the effect of 3-day compound treatments on cell viability using a resazurin reduction assay measuring mitochondrial activity. Approximately 5,000 cells in 80 μL of culture medium were seeded into the wells of a 96-well plate. Twenty-four hours later, 20 μL of 5-fold concentrated test compound solutions was added and tested across three concentrations prepared through 2-fold serial dilutions. The highest final concentration was 40 μM. After 72 h, we added an 11-fold concentrated resazurin solution to the wells, achieving a final concentration of 0.0125 μM. Fluorescence (ex = 570 nm, em = 610 nm) was measured after 3 h of incubation. […]

[2] = tested on: C. elegans CB3474 ben-1(e1880) III.; test: Chitinase assay (reproductive capacity); format: in vivo; conditions: Caenorhabditis elegans; mebendazole-resistant strain
Experimental: (§1) C. elegans strains used in this study were N2 (wild-type), levamisole-resistant strains ZZ15 (lev-8(x15) X) and […] (lev-1(e211) IV), ivermectin-resistant strain DA1316 (avr-14(ad1305) I; avr-15(vu227) glc-1(pk54) V), mebendazole-resistant strain […] (ben-1(e1880) III), and three strains with mutations in succinate dehydrogenase, RP2699, RP2700, and RP2702. The worms were cultivated on Nematode Growth Medium agar plates seeded with Escherichia coli OP50 in 20 °C according to the standard cultivation protocols. Strains RP2699, RP2700, and RP2702 were generated by Prof. Peter Roy’s group. All other strains and bacteria were purchased from the Caenorhabditis Genetics Center (CGC, Minneapolis, MN).
(§2) The effect of compounds on C. elegans was evaluated using the Chitinase assay as we described previously.
(§3) Lastly, strain DA1316 has mutations in three genes encoding subunits of the glutamate-gated chloride channel and is highly resistant to avermectins.

[3] = tested on: C. elegans ZZ15 lev-8(x15) X.; test: Chitinase assay (reproductive capacity); format: in vivo; conditions: Caenorhabditis elegans; levamisole-resistant strain
Experimental: as §1, §2, §3

[4] = tested on: C. elegans CB211 lev-1(e211) IV.; test: Chitinase assay (reproductive capacity); format: in vivo; conditions: Caenorhabditis elegans; levamisole-resistant strain
Experimental: as §1, §2, §3

[5] = tested on: C. elegans DA1316 avr-14(ad1305) I; avr-15(vu227) glc-1(pk54) V.; test: Chitinase assay (reproductive capacity); format: in vivo; conditions: Caenorhabditis elegans; ivermectin-resistant strain
Experimental: as §1, §2, §3

[6] = tested on: C. elegans N2 wild-type; test: Chitinase assay (reproductive capacity); format: in vivo, Caenorhabditis elegans
Experimental: as §2
After exposing L1 larvae to the compounds for 4 days, we observed the populations under a microscope and measured the Chitinase activity. The larvae produce the enzyme while hatching, and its activity is indicative of the reproductive capacity of the worms. Populations that fail to reproduce due to acute or reproductive toxicity or developmental abnormalities are detected.

[7] = tested on: Arabidopsis thaliana Col-0; test: Germination rate and phytotoxicity; format: in vivo; conditions: for average fraction of germinated seeds: 5 DPS; for main root length / plant weight: 10 DPS
Experimental: Wild-type A. thaliana (Col-0 ecotype) seeds were sterilized with 70% EtOH with 0.1% Tween-20 solution (2 × 1 mL) for 10 min, rinsed with 96% EtOH (1 × 1 mL) for 10 min, and kept in the fridge (4 °C in the dark). Seeds were sown on a sterile 1/2 MS medium supplemented with 0.3% DMSO as a mock and test compounds at 5, 10, 50, and 100 μM concentrations in 0.3% DMSO. Plates were kept in long-day light conditions (22 °C/20 °C, 16 h light/8 h dark, 100 μmol m^–2 s^–1). After 5 days, the germination rate was evaluated. After an additional 5 days, primary root growth was measured with ImageJ software (https://imagej.nih.gov/ij/), and seedlings were weighted.

[8] = tested on: age unsynchronized Ditylenchus destructor; test: Motility on WMicrotracker ONE; format: in vivo
Experimental: Populations of D. destructor, kindly provided by Central Institute for Supervising and Testing in Agriculture, the Ministry of Agriculture of the Czech Republic, were maintained according to the protocol previously described here.
(§4) The effect of compounds on motility of H. contortus, D. destructor, and H. schachtii was evaluated using the WMicrotracker ONE platform according to previously published protocols. ,
(§5) The instrument evaluates the activity of small animals by counting how many times infrared light microbeams passing through the wells of a microtiter plate are interrupted. In age-unsynchronized populations of D. destructor, we observed reduced motility of worm populations treated with the halogenated derivatives i-19, i-20, and i-21 (Figures A, S2.1A, S2.2A and Table S2.1). […] The decreases in mean activity counts after 72 h of treatment at 100 μM were 85% and 97%, respectively.

[9] = tested on: Heterodera schachtii second-stage juveniles (J2); test: Motility on WMicrotracker ONE; format: in vivo
Experimental: H. schachtii was maintained on mustard (Sinapsis alba cv. Albatros) roots grown in vitro on modified KNOP medium according to the previously published protocols. ,
as §4, §5

[10] = tested on: human keratinocytes (HaCaT); test: Resazurin assay, 3-day treatment; format: cell-based
Experimental: Skin fibroblasts (BJ) were obtained from the American Type Culture Collection (ATCC, Manassas, VA), while human keratinocytes (HaCaT) were sourced from the German Cancer Research Center in Heidelberg, Germany. Cells were cultured in a standard DMEM medium from Sigma-Aldrich, supplemented with 10% fetal bovine serum, 2 mM glutamine, 100 U/mL penicillin, and 100 μg/mL streptomycin. Cultures were maintained under standard conditions (37 °C, 5% CO2, humidified atmosphere) and subcultured two to three times per week. We assessed the effect of 3-day compound treatments on cell viability using a resazurin reduction assay measuring mitochondrial activity. Approximately 5,000 cells in 80 μL of culture medium were seeded into the wells of a 96-well plate. Twenty-four hours later, 20 μL of 5-fold concentrated test compound solutions was added and tested across three concentrations prepared through 2-fold serial dilutions. The highest final concentration was 40 μM. After 72 h, we added an 11-fold concentrated resazurin solution to the wells, achieving a final concentration of 0.0125 μM. Fluorescence (ex = 570 nm, em = 610 nm) was measured after 3 h of incubation.
The disubstituted derivatives i-25 and i-27 were the most toxic in the set, causing around a 50% decrease in viability of HaCaT cells at 40 μM.

[11] = 10 µM group, initial (prior to the treatment)
[12] = 50 µM group, initial (prior to the treatment)
[13] = 100 µM group, initial (prior to the treatment)

Row | IC50 [2] [µM] | IC50 [3] [µM] | IC50 [4] [µM] | IC50 [5] [µM] | IC50 ([6]; Caenorhabditis elegans) [µM] | SMILES | Average viability (signal intensity relative to control) ([1]; 10 µM) | Average viability (signal intensity relative to control) ([1]; 20 µM) | Average viability (signal intensity relative to control) ([1]; 40 µM) | average fraction of germinated seeds ([7]; 5 µM) | main root length ([7]; 5 µM) [mm] | plant weight ([7]; 5 µM) [mg] | average fraction of germinated seeds ([7]; 10 µM) | main root length ([7]; 10 µM) [mm] | plant weight ([7]; 10 µM) [mg] | average fraction of germinated seeds ([7]; 50 µM) | main root length ([7]; 50 µM) [mm] | plant weight ([7]; 50 µM) [mg] | average activity counts [8, 11] | average activity counts ([8]; 10 µM, 48 h) | average activity counts ([8]; 10 µM, 72 h) | other results
1 | 10.2 ± 0.5 | 9.71 ± 1.34 | 9.65 ± 1.82 | 9.34 ± 2.01 | < 10 | CCOc1cccc(-c2ccc3[nH]ccc3c2)c1 [i-9] | 0.92 ± 0.03 | 0.97 ± 0.04 | 0.94 ± 0.03 | 0.96 | 40.21 | 33.97 | 0.95 | 41.46 | 35.69 | 0.96 | 35.05 | 31.4 | 199 | 183 | 205 | IC50 [6]: 9.76 ± 0.93 µM; average activity counts [8, 12]: 200; average activity counts ([8]; 50 µM, 48 h): 176; average activity counts ([8]; 50 µM, 72 h): 212; average activity counts [8, 13]: 228; average activity counts ([8]; 100 µM, 48 h): 171; average activity counts ([8]; 100 µM, 72 h): 181; average activity counts [9, 11]: 167; average activity counts ([9]; 10 µM, 48 h): 161; average activity counts ([9]; 10 µM, 72 h): 159; average activity counts [9, 12]: 201; average activity counts ([9]; 50 µM, 48 h): 207; average activity counts ([9]; 50 µM, 72 h): 188; average activity counts [9, 13]: 193; average activity counts ([9]; 100 µM, 48 h): 202; average activity counts ([9]; 100 µM, 72 h): 171; Average viability (signal intensity relative to control) ([10]; 10 µM): 0.97 ± 0.04; Average viability (signal intensity relative to control) ([10]; 20 µM): 1.01 ± 0.05; Average viability (signal intensity relative to control) ([10]; 40 µM): 0.99 ± 0.02
2 | 10.2 ± 0.51 | 8.55 ± 1.04 | 8.86 ± 0.9 | 9.1 ± 2.21 | < 10 | CC(C)Oc1cccc(-c2ccc3[nH]ccc3c2)c1 [i-15] | 1 ± 0.03 | 1.03 ± 0.04 | 0.98 ± 0.05 | 0.98 | 36.67 | 35.21 | 0.93 | 36.13 | 31.55 | 0.95 | 35.01 | 29.94 | 224 | 201 | 224 | IC50 [6]: 7.93 ± 0.66 µM; average activity counts [8, 12]: 226; average activity counts ([8]; 50 µM, 48 h): 198; average activity counts ([8]; 50 µM, 72 h): 218; average activity counts [8, 13]: 217; average activity counts ([8]; 100 µM, 48 h): 199; average activity counts ([8]; 100 µM, 72 h): 206; average activity counts [9, 11]: 169; average activity counts ([9]; 10 µM, 48 h): 191; average activity counts ([9]; 10 µM, 72 h): 164; average activity counts [9, 12]: 188; average activity counts ([9]; 50 µM, 48 h): 193; average activity counts ([9]; 50 µM, 72 h): 144; average activity counts [9, 13]: 195; average activity counts ([9]; 100 µM, 48 h): 212; average activity counts ([9]; 100 µM, 72 h): 175; Average viability (signal intensity relative to control) ([10]; 10 µM): 1.01 ± 0.04; Average viability (signal intensity relative to control) ([10]; 20 µM): 1.04 ± 0.05; Average viability (signal intensity relative to control) ([10]; 40 µM): 1.01 ± 0.05
3 | 7.48 ± 0.06 | 8.83 ± 0.47 | 9.85 ± 0.33 | 10.79 ± 0.08 | 9.75 ± 1.65 | CC(C)Oc1cc(-c2ccc3[nH]ccc3c2)ccc1Cl [i-27] | 0.92 ± 0.02 | 0.92 ± 0.03 | 0.89 ± 0.03 | 0.94 | 39.90 | 33.97 | 0.98 | 40.35 | 35.66 | 0.95 | 37.27 | 30.34 | 242 | 235 | 211 | average activity counts [8, 12]: 248; average activity counts ([8]; 50 µM, 48 h): 227; average activity counts ([8]; 50 µM, 72 h): 223; average activity counts [8, 13]: 213; average activity counts ([8]; 100 µM, 48 h): 207; average activity counts ([8]; 100 µM, 72 h): 202; average activity counts [9, 11]: 169; average activity counts ([9]; 10 µM, 48 h): 161; average activity counts ([9]; 10 µM, 72 h): 167; average activity counts [9, 12]: 189; average activity counts ([9]; 50 µM, 48 h): 124; average activity counts ([9]; 50 µM, 72 h): 113; average activity counts [9, 13]: 169; average activity counts ([9]; 100 µM, 48 h): 161; average activity counts ([9]; 100 µM, 72 h): 111; Average viability (signal intensity relative to control) ([10]; 10 µM): 0.78 ± 0.12; Average viability (signal intensity relative to control) ([10]; 20 µM): 0.6 ± 0.19; Average viability (signal intensity relative to control) ([10]; 40 µM): 0.48 ± 0.21; decrease in viability ([10]; 40 µM): ~50%
